Reference: PubChem BioAssay (NCI)
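In this assay, cells in 96-well plates receive the compound at five concentrations for 48 hours. Endpoints are linearly interpolated between the surrounding concentrations. At the GI50, growth is halved. TGI: concentration producing complete growth inhibition.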

Legend:
Experiment in all cases: NCI-60 cell line screen, 48 h
[1] = tested on: DU-145 prostate
[2] = tested on: HOP-92 NSCLC
[3] = tested on: MOLT-4 leukemia
[4] = tested on: UACC-62 melanoma
[5] = tested on: KM12 colon
[6] = tested on: UO-31 renal
[7] = tested on: MDA-MB-231 breast
[8] = tested on: SF-539 CNS
[9] = tested on: A498 renal
[10] = tested on: MCF7 breast
[11] = tested on: OVCAR-8 ovarian
[12] = tested on: NCI/ADR-RES ovarian
[13] = tested on: M14 melanoma
[14] = tested on: EKVX NSCLC
[15] = tested on: CCRF-CEM leukemia
[16] = tested on: HT29 colon
[17] = tested on: OVCAR-3 ovarian
[18] = tested on: SK-MEL-2 melanoma
[19] = tested on: MALME-3M melanoma
[20] = tested on: NCI-H460 lung
[21] = tested on: NCI-H522 lung
[22] = tested on: OVCAR-5 ovarian
[23] = tested on: RPMI-8226 leukemia
[24] = tested on: IGROV1 ovarian
[25] = tested on: HCT-15 colon
[26] = tested on: BT-549 breast
[27] = tested on: HL-60(TB) leukemia
[28] = tested on: ACHN renal
[29] = tested on: SR leukemia
[30] = tested on: SK-MEL-28 melanoma
[31] = tested on: SK-OV-3 ovarian
[32] = tested on: SW-620 colon
[33] = tested on: HCC-2998 colon
[34] = tested on: HS 578T breast
[35] = tested on: HOP-62 NSCLC
[36] = tested on: SNB-19 CNS
[37] = tested on: SN12C renal
[38] = tested on: T-47D breast
[39] = tested on: K-562 leukemia
[40] = tested on: A549 NSCLC
[41] = tested on: OVCAR-4 ovarian
[42] = tested on: SK-MEL-5 melanoma
[43] = tested on: LOX IMVI melanoma
[44] = tested on: CAKI-1 renal
[45] = tested on: HCT-116 colon
[46] = tested on: COLO 205 colon
[47] = tested on: PC-3 prostate
[48] = tested on: TK-10 renal
[49] = tested on: SF-268 CNS
[50] = tested on: NCI-H226 lung
[51] = tested on: UACC-257 melanoma
[52] = tested on: SF-295 CNS
[53] = tested on: RXF 393 renal
[54] = tested on: NCI-H23 lung
[55] = tested on: U251 CNS
[56] = tested on: MDA-MB-435
[57] = tested on: 786-0 renal
[58] = tested on: SNB-75 CNS

What does the source list for COc1ccc2c(c1)C(=O)c1c-2n(CCCCl)c(=O)c2cc(OC)c(OC)cc12?
GI50 [1]: 4.01 µM; TGI [1]: > 48.1 µM; GI50 [2]: > 32.6 µM; TGI [2]: > 86.4 µM; GI50 [3]: 2.55 µM; TGI [3]: 6.29 µM; GI50 [4]: 4.6 µM; TGI [4]: > 100 µM; GI50 [5]: > 54.2 µM; TGI [5]: > 100 µM; GI50 [6]: 8.4 µM; TGI [6]: > 100 µM; GI50 [7]: > 100 µM; TGI [7]: > 100 µM; GI50 [8]: 6.29 µM; TGI [8]: > 57.3 µM; GI50 [9]: > 52.5 µM; TGI [9]: > 100 µM; GI50 [10]: 6.27 µM; TGI [10]: > 100 µM; GI50 [11]: 53.4 µM; TGI [11]: > 100 µM; GI50 [12]: 11.6 µM; TGI [12]: > 100 µM; GI50 [13]: 6.24 µM; TGI [13]: > 100 µM; GI50 [14]: > 100 µM; TGI [14]: > 100 µM; GI50 [15]: 2.02 µM; GI50 [16]: > 52.1 µM; TGI [16]: > 100 µM; GI50 [17]: 82.3 µM; TGI [17]: > 100 µM; GI50 [18]: > 100 µM; TGI [18]: > 100 µM; GI50 [19]: 18.6 µM; TGI [19]: > 96.1 µM; GI50 [20]: 2.4 µM; TGI [20]: > 100 µM; GI50 [21]: 9.12 µM; TGI [21]: > 95 µM; GI50 [22]: > 100 µM; TGI [22]: > 100 µM; GI50 [23]: 2.14 µM; TGI [23]: 14.5 µM; GI50 [24]: 17.1 µM; TGI [24]: > 100 µM; GI50 [25]: > 96.4 µM; TGI [25]: > 100 µM; GI50 [26]: > 100 µM; TGI [26]: > 100 µM; GI50 [27]: 4.11 µM; TGI [27]: 18 µM; GI50 [28]: 3.28 µM; TGI [28]: 14 µM; GI50 [29]: 1.39 µM; TGI [29]: 6.62 µM; GI50 [30]: > 79.4 µM; TGI [30]: > 100 µM; GI50 [31]: 28.6 µM; TGI [31]: > 100 µM; GI50 [32]: 19.6 µM; TGI [32]: > 100 µM; GI50 [33]: 17.4 µM; TGI [33]: > 95.9 µM; GI50 [34]: > 77.2 µM; TGI [34]: > 100 µM; GI50 [35]: 5.13 µM; TGI [35]: > 51.3 µM; GI50 [36]: 13.2 µM; TGI [36]: > 100 µM; GI50 [37]: 6.67 µM; TGI [37]: > 100 µM; GI50 [38]: 13.5 µM; TGI [38]: > 100 µM; GI50 [39]: 32.4 µM; TGI [39]: > 100 µM; GI50 [40]: 12 µM; TGI [40]: > 100 µM; GI50 [41]: > 91.7 µM; TGI [41]: > 100 µM; GI50 [42]: 9.2 µM; TGI [42]: 30.1 µM; GI50 [43]: 6.87 µM; TGI [43]: > 61.9 µM; GI50 [44]: 6.47 µM; TGI [44]: > 24.4 µM; GI50 [45]: 8.68 µM; TGI [45]: > 100 µM; GI50 [46]: > 100 µM; TGI [46]: > 100 µM; GI50 [47]: 41.5 µM; TGI [47]: > 100 µM; GI50 [48]: > 70.2 µM; TGI [48]: > 100 µM; GI50 [49]: 8.63 µM; TGI [49]: > 100 µM; GI50 [50]: > 79.1 µM; TGI [50]: > 100 µM; GI50 [51]: 45.3 µM; TGI [51]: > 100 µM; GI50 [52]: 3.99 µM; TGI [52]: > 100 µM; TGI [53]: > 21.1 µM; GI50 [54]: 15.5 µM; TGI [54]: > 100 µM; GI50 [55]: 5.95 µM; TGI [55]: > 100 µM; GI50 [56]: 42.5 µM; TGI [56]: > 100 µM; GI50 [57]: 5.41 µM; TGI [57]: 31.7 µM; GI50 [58]: > 24.7 µM; TGI [58]: > 75.5 µM
